# Values quoted from earlier work in patent US10878939B2, “Methods and compositions for personalized pain management” (Children's Hospital Medical Center, priority 2014, dated 2020).
# Settings: other reports; cited from earlier work
smiles,measurement,value
"CN1CC[C@]23c4c5ccc(O[C@@H]6O[C@H](C(=O)O)[C@@H](O)[C@H](O)[C@H]6O)c4O[C@H]2[C@@H](O)C=C[C@H]3[C@H]1C5 [M3G, Morphine-3-Glucuronide]",M3G metabolite formation relative to M6G formation,7-10 fold
